From patent US20240400515A1, “NPM1-DEPENDING LEUKEMIA AGENTS” (UNIVERSIDAD COMPLUTENSE DE MADRID, priority 2021, published 2024)
“Also recorded” adds a separate entry of the source.

Legend:
OCI-AML3 (NPM1 C+) [1] = experiment: Viability assay (WST-1) in OCI-AML3 cell line; format: cell-based; conditions: Homo sapiens, OCI-AML-3; dose-response curve, FIG. 1
[2] = Pharmacokinetic study in mice; format: in vivo, mouse; set-up: in-vivo diffusion: dose or concentration left out as unconfirmed; conditions: FIG. 5A
Method: Pharmacokinetic studies for compound Ic were performed. […] The area of the molecular peak allows to calculate the concentration of the compound present in mice serum at each time.

OCI-AML3-ffLuc-GFP cells = experiment: AML xenograft mouse model (OCI-AML3-ffLuc-GFP cells in NSG mice); format: in vivo; conditions: ip administration for 3 weeks, NSG mice with 1 million OCI-AML3-GFP-Luc cells, versus vehicle, FIG. 5B
Method: An AML xenograft mouse model was used for the study of in vivo efficacy. Female 6-8 week-old NOD.Cg-Prkdcscid II2rgtm1WjI/SzJ (NSG) mice (Vivotecnia, Madrid, Spain) were inoculated intravenously by tail vein injection with OCI-AML3-ffLuc-GFP cells (1×10^6). The animal experiment was performed according to the guidelines of the Institutional Animal Care and Use Committees of the Comunidad de Madrid, Spain, under approved protocol (PROEX 023/17). Four days later, mice were randomized into three groups of 10 animals: the first group received intraperitoneal injections of vehicle (0.9% saline solution) five days a week; the second group received 25 mg/kg of compound Ic intraperitoneally five times a week for four weeks; the third group received intraperitoneal injections of 50 mg/kg of compound Ic five times weekly for three weeks. Mice were monitored for tumor burden, distribution and engraftment every week by IVIS whole-body bioluminescence imaging. Bioimaging of […] burden in vivo was performed by IVIS Imaging system (Caliper Life Science). Before performing, Luciferin (D-luciferin monosodium salt, Thermofisher) was prepared in PBS and 150 mg/kg of Luciferin was injected i.p.; after 10 min, luminescence signal can be detected. The signal data was analyzed by the Living Image 4.2 (Caliper Life Science) software.

[3] = biological target: T1, NPM1 cytoplasmic form (NPM1 C+) (Homo sapiens, UniProt P06748); experiment: Effect on NPM1 cytoplasmic form (NPM1 C+) by confocal microscopy in OCI-AML3; format: cell-based; conditions: OCI-AML3, 10 µM, 48 h, FIG. 4
T1 construct: endogenous in cells; host or cells: OCI-AML3 (DSMZ)
T1 sequence (P06748 with tags, fused parts or gaps limits assumed): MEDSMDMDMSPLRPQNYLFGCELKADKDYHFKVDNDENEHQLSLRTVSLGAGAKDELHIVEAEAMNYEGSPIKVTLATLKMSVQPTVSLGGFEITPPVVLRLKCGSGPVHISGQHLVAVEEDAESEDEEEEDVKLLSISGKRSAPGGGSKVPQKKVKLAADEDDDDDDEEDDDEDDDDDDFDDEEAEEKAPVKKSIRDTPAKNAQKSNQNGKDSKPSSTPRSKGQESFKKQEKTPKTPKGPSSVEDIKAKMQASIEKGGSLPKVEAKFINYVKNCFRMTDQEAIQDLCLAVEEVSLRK
Method: OCI-AML3 (NPM1 C+) cells were plated onto glass coverslips or Greiner Bio-One μClear black 96-well plate (7.5×10^4 cells per well) and treated with test compound for 48 h. Then, cells were fixed with 4% paraformaldehyde for 15 min, permeabilized with 0.1% Triton X-100 for 30 min, and blocked in 5% bovine serum albumin during 1 h at rt. Incubation with primary antibodies against NPM1 (7H10B9, NOVUS Biologicals) was carried out overnight at 4° C. Alexa-488 conjugated anti-mouse or anti-rabbit antibodies (Molecular Probes) were used for detection of the reported proteins by confocal microscopy. Nuclei were counterstained with 4′,6-diamidino-2-phenylindole (DAPI) bath. A total of 35 fields per well were acquired with a ×40 magnification lens for those samples run in the Opera HCS system (Perkin Elmer). Images were segmented using the DAPI staining and the coefficient of variation of NPM1 intensity per nucleus/cytoplasm was calculated using Definiens Developer XD software.

AML primary cells = experiment: Colony formation unit assay in primary CD34+ cells from AML patients; format: cell-based; conditions: Homo sapiens, 336 h; methylcellulose culture, 14 days, FIG. 3; read-out: CFU-E: IC50 AML
Method: (§1) Sorted CD34^+ cells were plated in 24-well plates at a density of 3×10^4 cells per well in methylcellulose-based medium MethoCult GF H4434 (StemCell Technologies) containing stem cell factor (SCF), interleukin-3 (IL-3), erythropoietin (EPO) and granulocyte macrophage colony stimulating factor (GM-CSF). Test compound was added directly to the cells within the methylcellulose medium, and incubated at 37° C. in a humidified atmosphere in the presence of 5% CO2 for 14 days. Total cells from colonies formed were counted manually using an inverted microscope/phase contrast microscopy with trypan-blue. The data were presented as percentage of colonies or percentage of viable cells relative to DMSO, obtained from two or three independent experiments performed in duplicate.

[4] = system: healthy donor bone marrow cells; experiment: Colony formation unit assay in CD34+ healthy donor bone marrow cells; format: cell-based; conditions: Homo sapiens, Bone marrow cell, 336 h; methylcellulose culture, 14 days, FIG. 3; read-out: CFU-E: IC50 healthy donors
Method: as §1

[5] = system: AML primary cells NPM1 mut; experiment: Viability assay in primary CD34+ cells from AML patients, NPM1 mut; format: cell-based; conditions: Homo sapiens, FIG. 2
Method: (§2) The sensitivity of the compounds on OCI-AML3 (NPM1 C+) and MOLM13 (NPM1 C−) cell viability was assessed as an in-vitro acute myeloid leukemia (AML) model. Briefly, cells were seeded at a density of 2×10^4 cells/100 μL/well in 96-well plates. Cell lines were treated for 24 h with the test compound diluted in DMSO at the concentration of 5 μM or vehicle (DMSO). Then, 10 μL of WST-1 solution ((2-(4-iodophenyl)-3-(4-nitrophenyl)-5-(2,4-disulfophenyl)-2H-tetrazolium monosodium salt, Merck) were added and the cells were incubated for 4 h at 37° C. The absorbance was measured at 450 nm using an Asys UVM 340 microplate reader (Biochrom Ltd., Cambridge, UK). The background absorbance of blank wells containing only medium was subtracted from each test well. The data were reported as viability percentage relative to vehicle, obtained from two or three independent experiments performed in triplicate (Table 1).
(§3) Primary cells from AML bone marrow patients CD34+ were isolated by anti-CD34+ microbeads (Miltenyi Biotech) from bone marrow of healthy donors and AML patients. Briefly, bone marrow samples were collected from AML and healthy patient pelvic bone, and were subjected to Ficoll-Paque density gradient separation to isolate mononuclear cells. […]

[6] = system: healthy donor bone marrow cells; experiment: Viability assay in CD34+ healthy donor bone marrow cells; format: cell-based; conditions: Homo sapiens, Bone marrow cell, FIG. 2, read-out: IC50 healthy donors
Method: as §2, §3

MOLM13 (NPM1 C−) [7] = experiment: Viability assay (WST-1) in MOLM13 cell line; format: cell-based; conditions: Homo sapiens, MOLM-13; dose-response curve, FIG. 1
OCI-AML3 (NPM1 C+) [8] = experiment: Viability assay (WST-1) in OCI-AML3 cell line; format: cell-based; conditions: Homo sapiens, OCI-AML-3, viability percentage relative to vehicle, 24 h
Method: (§4) Two different acute myeloid leukemia cell lines, OCI-AML3 (NPM1 C+) and MOLM13 (NPM1 C−) were obtained from the DSMZ cell repository (Braunschweig, Germany). Cell lines were expanded and cryogenically frozen upon acquisition to establish stocks in liquid nitrogen until use. Cultured cells were maintained at 37° C. in a humidified incubator in an atmosphere of 5% CO2 and passaged every 2-3 days. RPMI media (Gibco/Life Technologies; Grand Island, NY) supplemented with 10% fetal bovine serum (FBS) (Hyclone) and 1% penicillin/streptomycin was used.
as §2

[9] = system: AML primary cells NPM1 WT; experiment: Viability assay in primary CD34+ cells from AML patients, NPM1 WT; format: cell-based; conditions: Homo sapiens, FIG. 2
Method: as §2, §3

MOLM13 (NPM1 C−) [10] = experiment: Viability assay (WST-1) in MOLM13 cell line; format: cell-based; conditions: Homo sapiens, MOLM-13, viability percentage relative to vehicle, 24 h
Method: as §4, §2

Row | SMILES | IC50 (OCI-AML3 (NPM1 C+) [1]) [µM] | levels in mouse peripheral blood ([2]; 25 mg/kg intraperitoneal, first 6 h post-injection) [ng/mL] | in-vivo diffusion ([2]; plasma concentration 30 minutes to 6 hours after ip administration) | AML cell (tumour) infiltration (OCI-AML3-ffLuc-GFP cells) | Effect on NPM1 / NPM1C+ (confocal microscopy) [3] | IC50 (AML primary cells) [µM] | IC50 [4] [µM] | IC50 [5] [µM] | IC50 [6] [µM] | IC50 (MOLM13 (NPM1 C−) [7]) [µM] | viability at 5 µM (OCI-AML3 (NPM1 C+) [8]) [%] | IC50 [9] [µM] | viability at 5 µM (MOLM13 (NPM1 C−) [10]) [%]
1 | COc1ccc([C@H]2Cc3[nH]c4ccccc4c3[C@@H](CCNCC3CC3)[C@@H]2N)cc1 [Ic, (2R,3R,4R)-4-{2-[(Cyclopropylmethyl)amino]ethyl}-2-(4-methoxyphenyl)-2,3,4,9-tetrahydro-1H-carbazol-3-amine] | 7.59 | 200 to 600 | correct in-vivo diffusion was observed | Tumour infiltration decrease was observed | inhibition of the NPM1 cytoplasmic form (NPM1 C+) of the protein; also recorded: deplete NPM1 in OCI-AML3, especially NPM1C+ form | 1.26 | 4.6 | 1.24 | 7.89 | 41.8 | 40 ± 2 | 5.03 | 55 ± 6
2 | Cc1ccc([C@H]2Cc3c(c4ccccc4n3C)[C@@H](CCNCC3CC3)[C@@H]2N)cc1 [Ial, (2R,3R,4R)-4-{2-[(Cyclopropylmethyl)amino]ethyl}-9-methyl-2-(4-methylphenyl)-2,3,4,9-tetrahydro-1H-carbazol-3-amine] |  |  |  |  |  |  |  |  |  |  | 22 ± 2 |  | 17
3 | N[C@@H]1[C@@H](c2ccc(Cl)cc2)Cc2[nH]c3ccccc3c2[C@H]1CCNCC1CC1 [Ii, (2R,3R,4R)-2-(4-Chlorophenyl)-4-{2-[(cyclopropylmethyl)amino]ethyl}-2,3,4,9-tetrahydro-1H-carbazol-3-amine] |  |  |  |  |  |  |  |  |  |  | 13 ± 4 |  | 13 ± 1
4 | Cc1ccc([C@H]2Cc3[nH]c4ccccc4c3[C@@H](CCNC3CC3)[C@@H]2N)cc1 [Iaa, (2R,3R,4R)-4-[2-(Cyclopropylamino)ethyl]-2-(4-methylphenyl)-2,3,4,9-tetrahydro-1H-carbazol-3-amine] |  |  |  |  |  |  |  |  |  |  | 1 ± 1 |  | 2 ± 2
